Measured values as given in ChEMBL document CHEMBL4619751, “Synthesis of novel spirobibenzopyrans as potent anticancer leads inducing apoptosis in HeLa cells” (Bioorg Med Chem Lett, 2020).
Calls of active or inactive are those of the source. No cut-off for these calls is given here.

Experiments:
HeLa [1] = experiment: Cytotoxicity against human HeLa cells assessed as cell proliferation at 10 uM by MTT assay relative to control; assay type: functional; settings: read-out: Activity
HeLa [2] = experiment: Induction of apoptosis in human HeLa cells assessed as chromatin condensation by acridine oranga/ethidium bromide staining based assay; assay type: functional, cell-based
HeLa [3] = experiment: Cell cycle arrest in human HeLa cells assessed as accumulation at S phase at 10 uM measured after 48 hrs by FACS analysis; assay type: functional, cell-based
HeLa [4] = experiment: Induction of DNA damage in human HeLa cells assessed as tail DNA formation at IC50 by alkaline Comet assay; assay type: functional
HeLa [5] = experiment: Cell cycle arrest in human HeLa cells assessed as accumulation at sub G0/G1 phase at 10 uM measured after 48 hrs by FACS analysis; assay type: functional, cell-based
HeLa [6] = experiment: Cytotoxicity against human HeLa cells assessed as growth inhibition by MTT assay; assay type: functional, cell-based
HeLa [7] = experiment: Induction of DNA damage in human HeLa cells assessed as inhibition of DNA replication; assay type: functional, cell-based
HeLa [8] = experiment: Cell cycle arrest in human HeLa cells assessed as accumulation at S phase at 50 uM measured after 48 hrs by FACS analysis; assay type: functional, cell-based
HeLa [9] = experiment: Induction of apoptosis in human HeLa cells assessed as nuclear fragmentation by acridine oranga/ethidium bromide staining based assay; assay type: functional, cell-based
HeLa [10] = experiment: Cell cycle arrest in human HeLa cells assessed as accumulation at middle G0/G1 phase at 10 uM measured after 48 hrs by FACS analysis; assay type: functional, cell-based
HeLa [11] = experiment: Cell cycle arrest in human HeLa cells assessed as accumulation at sub G0/G1 phase at 50 uM measured after 48 hrs by FACS analysis; assay type: functional, cell-based
HeLa [12] = experiment: Cell cycle arrest in human HeLa cells assessed as accumulation at early G0/G1 phase at 10 uM measured after 48 hrs by FACS analysis; assay type: functional, cell-based

| Structure (SMILES) | growth at 10 µM (HeLa [1]) [%] | IC50 (HeLa [6]) [µM] | also measured |
| --- | --- | --- | --- |
| Clc1ccc2c(c1)C=C1CSCC3=Cc4cc(Cl)ccc4OC13O2 | 105 | – | – |
| C1=C2CCCCC3=Cc4ccccc4OC23Oc2ccccc21 | 80.2 | – | – |
| COc1ccc2c(c1)OC13Oc4cc(OC)ccc4C=C1CCCC3=C2 | 62.1 | 13.6 | Activity (HeLa [2]): Active; Activity (HeLa [3]): Active; Activity (HeLa [4]): 3.32 um; Activity (HeLa [5]): Active; Activity (HeLa [7]): Active |
| Clc1cc(Cl)c2c(c1)C=C1CCCCC3=Cc4cc(Cl)cc(Cl)c4OC13O2 | 102 | – | – |
| Brc1ccc2c(c1)C=C1CCCCC3=Cc4cc(Br)ccc4OC13O2 | 111 | – | – |
| Clc1ccc2c(c1)C=C1CCCCC3=Cc4cc(Cl)ccc4OC13O2 | 90.1 | – | – |
| COc1ccc2c(c1)C=C1CCCC3=Cc4cc(OC)ccc4OC13O2 | 46.6 | 10.7 | Activity (HeLa [3]): Active; Activity (HeLa [8]): inactive; Activity (HeLa [9]): Active; Activity (HeLa [10]): Active; Activity (HeLa [11]): inactive; Activity (HeLa [5]): Active |
| COc1ccc2c(c1)OC13Oc4cc(OC)ccc4C=C1CCCCC3=C2 | 108 | – | – |
| C1=C2CCCC3=Cc4ccccc4OC23Oc2ccccc21 | 77 | – | – |
| Clc1ccc2c(c1)C=C1CCCC3=Cc4cc(Cl)ccc4OC13O2 | 105 | – | – |
| O=c1[nH]cc(F)c(=O)[nH]1 [FLUOROURACIL] | 73.7 | 15 | Activity (HeLa [4]): 6.91 um |
| COc1ccc2c(c1)C=C1CCCCC3=Cc4cc(OC)ccc4OC13O2 | 59.3 | 12.2 | Activity (HeLa [9]): Active; Activity (HeLa [12]): Active; Activity (HeLa [5]): Active |
